Reference: patent publication US11419843B2, “Small molecule BCL-2 functional converters as cancer therapeutics” (Oregon State University, priority 2016, dated 2022)
Read-outs that look alike come from different tables or passages of the source.

Key:
[1] = target: T1, Nur77 interaction with Bcl-2 (Homo sapiens, UniProt P10415); assay: Co-immunoprecipitation, competition with Nur77 for Bcl-2; format: binding; details: 10 μM MTX, 16 h, HEK293T cells
T1 construct: expressed in transfected cells; host or cells: HEK293T
T1 sequence (P10415 whole entry): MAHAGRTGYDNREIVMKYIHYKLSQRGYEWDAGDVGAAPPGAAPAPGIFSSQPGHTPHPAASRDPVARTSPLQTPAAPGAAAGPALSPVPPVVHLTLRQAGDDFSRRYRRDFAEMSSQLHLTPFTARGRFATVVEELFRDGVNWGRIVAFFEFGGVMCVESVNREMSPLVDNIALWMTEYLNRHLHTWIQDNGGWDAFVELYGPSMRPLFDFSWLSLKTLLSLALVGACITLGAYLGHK
Protocol: Methotrexate reduced the interaction of Nur-77 with BCl-2 domain upon co-incubation indicating methotrexate interacts with the same region of loop domain as does Nur-77.
For CoIP experiments, HEK293T cells were plated in a 6 well plate and transfected with indicated expression plasmids by lipofectamine. The total amount of DNA was maintained at 2.5 μg. After 12 h of transfection, cells were treated with DMSO or 10 μM MTX for 16 h. The cells were then lysed on ice using RIPA buffer with freshly added protease inhibitor cocktail (Complete, mini, EDTA-free protease inhibitor cocktail, Roche, Inc.). The lysis buffer contained either DMSO or 10 μM MTX. Cell lysates were incubated on ice for 30 min and then spun at 14,000 rpm for 30 min at 4° C. Cleared lysates were incubated with Bcl-2 antibody (sc-509, Santacruz) and incubated at 4° C. for 2-4 h end-over-end mixing. After incubation a volume of sepharose beads (sc-2003, Santacruz) were added to each sample and left end-over-end mixing overnight at 4° C. The beads were then washed four times with RIPA buffer containing either DMSO or 10 μM and then solubilized in laemmli buffer. Proteins were analyzed on 10-12% SDS-PAGE and immunoblotted with mouse polyclonal anti-Bcl-2 (sc-509, Santacruz), mouse polyclonal anti-GFP (33-2600, Thermofisher).

MDA-MB-231/Bcl-2 cells = assay: Orthotopic breast cancer xenograft in mammary fat pad; format: in vivo, NOD SCID mice; details: 100 mg/kg twice a week; for Immunohistochemistry of tumor sections (TUNEL, Bcl-2 BH3, activated Bax, cleaved caspase-3): end of the study; for Tumor growth: intraperitoneal
Protocol: […] were implanted in the mammary fat pad of NOD SCID mice (N=10). Once palpable tumors were formed MTX was treated at 100 mg/kg twice a week by intraperitoneal injections. Tumor measurements were made with digital calipers twice a week.
106 MDA-MB-231/Bcl-2 cells were implanted in the mammary fat pad of NOD. SCID mice (n=8 per group). Once palpable tumors formed, mice were treated with 100 mg/kg BFC1108 twice a week by i.p. route. Tumor measurements were made with digital calipers twice a week.
All animal experiments were performed as per approved protocols from the IACUC at Oregon State University. 5 week old NOD.SCID mice were procured from Jackson Labs. Treatments were started once palpable tumors were detected. MTX was treated twice a week at 100 mg/kg dose. Body weight was measured twice a week. Tumor burden was measured twice a week using digital calipers.
All animal experiments were performed as per approved protocols from the IACUC at Oregon State University. For the mammary fat pad xenograft study, 5 week old NOD.SCID mice were procured form Jackson labs. About 10^6 cells were injected into both the lower flanks of mammary fat pad in PBS. Palpable tumors were detected in 4 weeks after which treatment with BFC1108 at 100 mg/kg twice a week continued till end of the study. Tumor mass was measured using digital calipers twice a week along with body weight. At the end of the study mice were euthanized and tumors were collected for immunohistochemical analysis.

[2] = mice; cited from earlier work
[3] = humans; cited from earlier work
[4] = tested on: MEF Bcl-2−/− and WT MEF cells; assay: Colony forming ability of MEFs; format: cell-based, mouse; details: 10 μM, 10% FBS, 48 h
[5] = tested on: H460 parental and resistant cells; assay: Colony formation (2D clonogenic, 3D soft agar) of H460 parental and resistant cells; format: cell-based, human; details: treated continuously for 14 days
Text: Colony forming ability (%) relative to vehicle treatment. Representative of three independent conducted assays in triplicate.

[6] = tested on: H460 parental and resistant cells; assay: Annexin-V apoptosis assay in H460 parental and resistant cells; format: cell-based, human; details: BFC1108 20 μM, 48 hours
Protocol: FIG. 25E is the results of Annexin-V apoptosis assay in H460 cells treated for 48 hours with vehicle or paclitaxel 10 nM, quantification right panel.
Cells were seeded into 6 well tissue culture plates to give approximately 50% confluence and allowed to attach overnight. The cells were then treated for a period of time indicated in figure legend with the appropriate compound at various concentrations (see figure legends). An Annexin V-conjugate PerCP-eFluor 710 apoptosis detection kit was used as described by the manufacturer's protocol (eBioscience 88-8008). Harvesting of cells included collection of floating and attached cells following trypsinization. Data were acquired using an CytoFLEX S flow cytometer (Beckman Coulter, Brea, Calif.) and 10,000 events on the PC5.5 channel were analyzed using CytExpert software (Beckman Coulter). For Nur77 GFP tagged annexin V analysis, GFP positive population were selected and then Annexin V+population was determined. For each sample, 10,000 GFP+ events were collected. Annexin V positive cell population was considered to be the apoptotic population, and the percent of annexin V positive cell population was used to determine the extent of apoptosis.

[7] = tested on: MDA-MB-468 parental and paclitaxel resistant cells; assay: Clonogenic survival of MDA-MB-468 parental and resistant cells; format: cell-based, human; details: treated continuously for 14 days
Text: FIG. 29B is the results of clonogenic survival assays in MDA-MB-468 parental and resistant cells treated continuously for 14 days with vehicle, or indicated concentration of paclitaxel. Colony forming ability (%) relative to vehicle treatment. Representative of three independent assays conducted in triplicate.

Row | Structure (SMILES) | Competition with Nur77 for interaction with Bcl-2 [1] | Immunohistochemistry of tumor sections (TUNEL, Bcl-2 BH3, activated Bax, cleaved caspase-3) (MDA-MB-231/Bcl-2 cells) | Tumor growth (MDA-MB-231/Bcl-2 cells) | half-life [2] [h] | half-life [3] [h] | Colony forming ability of MEF Bcl-2−/− cells [4] | Colony forming ability of WT MEFs [4] | Colony formation ability of H460 resistant vs parental line [5] | Induction of apoptosis (Annexin V), H460 resistant vs parental [6] | Colony forming ability of MDA-MB-468 paclitaxel resistant cells [7]
1 | CN(Cc1cnc2nc(N)nc(N)c2n1)c1ccc(C(=O)N[C@@H](CCC(=O)O)C(=O)O)cc1 [MTX, (2S)-2-[[4-[(2,4 diaminopteridin-6-yl)methylmethylamino]benzoyl]amino] pentanedioc acid] | competition between MTX and Nur77 in interacting with the Bcl-2 protein could be seen | caused a change in conformation of Bcl-2 and induced apoptosis in Bcl-2 over-expressing tumors | significant inhibition of tumor growth | 0.5 | 7 to 10 | – | – | – | – | –
2 | CCOc1ccccc1NC(=O)c1cc(Cl)ccc1NC(=O)c1ccc(OC)cc1 [BFC1108, 5-chloro-N-(2-ethoxyphenyl)-2-[(4-methoxybenzoyl)amino]-benzamide] | – | functional conversion of Bcl-2 leading to activation of intrinsic mitochondrial death pathway was validated in vivo | significantly reduced the growth of a xenograft tumor | – | – | absent | fewer colonies | reduced colony formation ability of resistant line preferentially | induced apoptosis in the resistant line preferentially | reduced colony forming ability of the paclitaxel resistant cells
